Reference: patent publication US20140357713A1, “ANTIMICROBIAL COMPOUNDS AND METHODS OF USE” (NexMed Holdings, Inc., priority 2012, published 2014)
Where two headings read alike, the source gives them in different places.

Assays:
[1] = Solubility (Sol., Table 1); assay type: physicochemical
[2] = system: Candida albicans; experiment: Extended time kill study, Example 34 (0 to 24 h); assay type: cell-based
Method: (§1) Time kill studies. Strain suspensions were prepared as described above for the MIC test, and strain suspensions and compound solutions were mixed in the same volume. Samples were removed at specified times including 0 min, 30 sec, 1 min and 5 mins, were diluted in the test medium and streaked on agar. Colonies were counted after 24 to 48 hrs of incubation.
(§2) The time kill studies of Example 33 were extended for five compounds (Nex-59, Nex-60, Nex-61, Nex-62, and Nex-88) using the same methods at longer time periods and at higher multiples of MIC. Nex-88 is a code number for DDAIP.HCl from a different supplier.

[3] = system: Staphylococcus aureus; experiment: Extended time kill study, Example 34 (0 to 24 h); assay type: cell-based
Method: as §1, §2

[4] = system: Aspergillus niger; experiment: Extended time kill study, Example 34 (0 to 24 h); assay type: cell-based
Method: as §1, §2

[5] = system: Staphulococcus aureus (ATCC 29213); experiment: Minimum inhibitory concentration (MIC) assay, Example 33; assay type: cell-based, Staphylococcus aureus; details: Staphylococcus aureus
Outline: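 Broth microdilution per CLSI guidelines in CAMHB, with 2-fold serial compound dilutions. Inoculum was set to a 0.5 McFarland standard, diluted 1:100 to twice the test density, then mixed 1:2 with drug. Plates were incubated at 35° C and the MIC read per CLSI.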

Compound: CCCCCCCCCCCCOC(=O)C(C)NC.Cl (centres unmarked) [Nex-59, Dodecyl 2-(methylamino)propanoate hydrochloride]
- melting point: 78 to 83 °C
- Sol. [1]: 33%
- Viable counts in Log10 CFU/mL ([2]; 1 × MIC, 1 h): 5.41 Log10 CFU/mL
- Viable counts in Log10 CFU/mL ([2]; 1 × MIC, 2 h): 5.24 Log10 CFU/mL
- Viable counts in Log10 CFU/mL ([2]; 1 × MIC, 4 h): 4.96 Log10 CFU/mL
- Viable counts in Log10 CFU/mL ([2]; 1 × MIC, 6 h): 4.40 Log10 CFU/mL
- Viable counts in Log10 CFU/mL ([2]; 1 × MIC, 24 h): >6 Log10 CFU/mL
- Viable counts in Log10 CFU/mL ([2]; 1 × MIC, 0 h): 5.68 Log10 CFU/mL
- Viable counts in Log10 CFU/mL ([2]; 2 × MIC, 1 h): 3.48 Log10 CFU/mL
- Viable counts in Log10 CFU/mL ([2]; 2 × MIC, 2 h): 3.00 Log10 CFU/mL
- Viable counts in Log10 CFU/mL ([2]; 2 × MIC, 4 h): 3.00 Log10 CFU/mL
- Viable counts in Log10 CFU/mL ([2]; 2 × MIC, 6 h): <2.70 Log10 CFU/mL
- Viable counts in Log10 CFU/mL ([2]; 2 × MIC, 24 h): <1 Log10 CFU/mL
- Viable counts in Log10 CFU/mL ([2]; 2 × MIC, 0 h): 5.75 Log10 CFU/mL
- Viable counts in Log10 CFU/mL ([2]; 4 × MIC, 1 h): <3 Log10 CFU/mL
- Viable counts in Log10 CFU/mL ([2]; 4 × MIC, 2 h): <3 Log10 CFU/mL
- Viable counts in Log10 CFU/mL ([2]; 4 × MIC, 4 h): <2.70 Log10 CFU/mL
- Viable counts in Log10 CFU/mL ([2]; 4 × MIC, 6 h): <2.70 Log10 CFU/mL
- Viable counts in Log10 CFU/mL ([2]; 4 × MIC, 24 h): <1 Log10 CFU/mL
- Viable counts in Log10 CFU/mL ([2]; 4 × MIC, 0 h): 5.63 Log10 CFU/mL
- Viable counts, Staphylococcus aureus time kill study ([3]; 1 × MIC, 1 h): <3 Log10 CFU/mL
- Viable counts, Staphylococcus aureus time kill study ([3]; 1 × MIC, 2 h): <3 Log10 CFU/mL
- Viable counts, Staphylococcus aureus time kill study ([3]; 1 × MIC, 4 h): <3 Log10 CFU/mL
- Viable counts, Staphylococcus aureus time kill study ([3]; 1 × MIC, 6 h): <3 Log10 CFU/mL
- Viable counts, Staphylococcus aureus time kill study ([3]; 1 × MIC, 24 h): <1 Log10 CFU/mL
- Viable counts, Staphylococcus aureus time kill study ([3]; 1×MIC, time 0): 6.20 Log10 CFU/mL
- Viable counts, Staphylococcus aureus time kill study ([3]; 2 × MIC, 1 h): <3 Log10 CFU/mL
- Viable counts, Staphylococcus aureus time kill study ([3]; 2 × MIC, 2 h): <3 Log10 CFU/mL
- Viable counts, Staphylococcus aureus time kill study ([3]; 2 × MIC, 4 h): <3 Log10 CFU/mL
- Viable counts, Staphylococcus aureus time kill study ([3]; 2 × MIC, 6 h): <3 Log10 CFU/mL
- Viable counts, Staphylococcus aureus time kill study ([3]; 2 × MIC, 24 h): <1 Log10 CFU/mL
- Viable counts, Staphylococcus aureus time kill study ([3]; 2 × MIC, time 0): 6.19 Log10 CFU/mL
- Viable counts, Staphylococcus aureus time kill study ([3]; 4 × MIC, 1 h): <3 Log10 CFU/mL
- Viable counts, Staphylococcus aureus time kill study ([3]; 4 × MIC, 2 h): <3 Log10 CFU/mL
- Viable counts, Staphylococcus aureus time kill study ([3]; 4 × MIC, 4 h): <3 Log10 CFU/mL
- Viable counts, Staphylococcus aureus time kill study ([3]; 4 × MIC, 6 h): <3 Log10 CFU/mL
- Viable counts, Staphylococcus aureus time kill study ([3]; 4 × MIC, 24 h): <1 Log10 CFU/mL
- Viable counts, Staphylococcus aureus time kill study ([3]; 4 × MIC, time 0): 6.18 Log10 CFU/mL
- Viable counts in Log10 CFU/mL ([4]; 1 × MIC, 1 h): 5.34 Log10 CFU/mL
- Viable counts in Log10 CFU/mL ([4]; 1 × MIC, 2 h): 5.48 Log10 CFU/mL
- Viable counts in Log10 CFU/mL ([4]; 1 × MIC, 4 h): 5.08 Log10 CFU/mL
- Viable counts in Log10 CFU/mL ([4]; 1 × MIC, 6 h): 5.30 Log10 CFU/mL
- Viable counts in Log10 CFU/mL ([4]; 1 × MIC, 24 h): 3.78 Log10 CFU/mL
- Viable counts in Log10 CFU/mL ([4]; 1 × MIC, 0 h): 5.41 Log10 CFU/mL
- Viable counts in Log10 CFU/mL ([4]; 2 × MIC, 1 h): 5.11 Log10 CFU/mL
- Viable counts in Log10 CFU/mL ([4]; 2 × MIC, 2 h): 4.70 Log10 CFU/mL
- Viable counts in Log10 CFU/mL ([4]; 2 × MIC, 4 h): 4.48 Log10 CFU/mL
- Viable counts in Log10 CFU/mL ([4]; 2 × MIC, 6 h): 3.95 Log10 CFU/mL
- Viable counts in Log10 CFU/mL ([4]; 2 × MIC, 24 h): <2 Log10 CFU/mL
- Viable counts in Log10 CFU/mL ([4]; 2 × MIC, 0 h): 5.36 Log10 CFU/mL
- Viable counts in Log10 CFU/mL ([4]; 4 × MIC, 1 h): 5.08 Log10 CFU/mL
- Viable counts in Log10 CFU/mL ([4]; 4 × MIC, 2 h): 4.48 Log10 CFU/mL
- Viable counts in Log10 CFU/mL ([4]; 4 × MIC, 4 h): 3.85 Log10 CFU/mL
- Viable counts in Log10 CFU/mL ([4]; 4 × MIC, 6 h): 4.04 Log10 CFU/mL
- Viable counts in Log10 CFU/mL ([4]; 4 × MIC, 24 h): <2 Log10 CFU/mL
- Viable counts in Log10 CFU/mL ([4]; 4 × MIC, 0 h): 5.29 Log10 CFU/mL
- MIC ([5]; ATCC29213, Table 19 summary, read-out: MIC): 50 µg/mL
- MIC ([5]; ATCC29213, n = 1, read-out: MIC S. aureus): 50 µg/mL
- MIC ([5]; ATCC29213, n = 2, read-out: MIC S. aureus): 50 µg/mL
